Results from patent US20170087108A1, “METHODS OF IMPROVING PHYSIOLOGICAL CONDITIONS RELATED TO PREGNANCY THROUGH DIETARY SUPPLEMENTATION” (Natural Alternatives International, Inc., priority 2015, published 2017).

Key:
pigs [1] = assay: Dietary supplementation of female pigs: survivability and live births per litter; type: in vivo; conditions: vs no supplementation and vs carnosine
Text: Beta-alanine will be used as a dietary supplement for pigs.
(§1) Beta-alanine supplementation will be provided to female pigs during pregnancy. Beta-alanine will be provided in dosages provided in concentrations and/or percentages for times described in this disclosure. Controls will be provided. Controls will include a group of female pigs given no additional supplementation beyond those currently administered during pig pregnancies. Another control group will be provided with supplementation with carnosine at dosages provided in concentrations and/or percentages for times described in this disclosure.
as §1, with “female pigs prior to and during pregnancy.” for “female pigs during pregnancy.”
as §1, with “pigs starting from breeding age through” for “pigs during”
as §1, with “pigs from birth through” for “pigs during”

chickens = conditions: Example 2: supplementation of female chickens during pregnancy; vs no supplementation and vs carnosine
Text: (§2) Beta-alanine will be used as a dietary supplement for pigs and chickens.
as §1, with “pigs and female chickens” for “pigs”, “pig and chicken” for “pig”, “carnosine provided in” for “carnosine at”

pigs [2] = conditions: Example 2: supplementation of female pigs during pregnancy; vs no supplementation and vs carnosine
Text: as §2
as §1, with “pigs and female chickens” for “pigs”, “pig and chicken” for “pig”, “carnosine provided in” for “carnosine at”

[3] = taken as a free amino acid; some individuals; cited from earlier work
[4] = Example 1: supplementation during pregnancy
[5] = Example 3: supplementation prior to and during pregnancy
[6] = Example 4: supplementation from breeding age through pregnancy
[7] = Example 5: supplementation from birth through pregnancy

SMILES: NCCC(=O)O [beta-alanine]
- amount of live births per litter (pigs [1]; [4]): improves
- survivability (pigs [1]; [4]): improves
- amount of live births per litter (pigs [1]; [5]): improves
- survivability (pigs [1]; [5]): improves
- amount of live births per litter (pigs [1]; [6]): improves
- survivability (pigs [1]; [6]): improves
- amount of live births per litter (pigs [1]; [7]): improves
- survivability (pigs [1]; [7]): improves
- early development rate for chicks (chickens): improves
- early development rate for piglets (pigs [2]): improves
- duration of flushing/tingling of the skin [3]: less than 60 minutes
